Data as given in US5521193A, “Benzimidazole compounds” (G. D. Searle & Co., priority 1995, dated 1996).

Tests used:
5-HT3 receptor = biological target: T1, 5-HT3 receptor (Rattus norvegicus, UniProt P35563); test: Serotonin (5-HT3) radioligand binding, [3H]-GR65630, rat brain cortex membranes; details: for Ki: [3H]-GR65630 0.2 nM, 60 min, 22° C.
T1 construct: Brain cortices were obtained from male rats and a membrane fraction prepared by standard techniques; from tissue; host or cells: rat brain cortex membranes
T1 sequence (P35563 24-483): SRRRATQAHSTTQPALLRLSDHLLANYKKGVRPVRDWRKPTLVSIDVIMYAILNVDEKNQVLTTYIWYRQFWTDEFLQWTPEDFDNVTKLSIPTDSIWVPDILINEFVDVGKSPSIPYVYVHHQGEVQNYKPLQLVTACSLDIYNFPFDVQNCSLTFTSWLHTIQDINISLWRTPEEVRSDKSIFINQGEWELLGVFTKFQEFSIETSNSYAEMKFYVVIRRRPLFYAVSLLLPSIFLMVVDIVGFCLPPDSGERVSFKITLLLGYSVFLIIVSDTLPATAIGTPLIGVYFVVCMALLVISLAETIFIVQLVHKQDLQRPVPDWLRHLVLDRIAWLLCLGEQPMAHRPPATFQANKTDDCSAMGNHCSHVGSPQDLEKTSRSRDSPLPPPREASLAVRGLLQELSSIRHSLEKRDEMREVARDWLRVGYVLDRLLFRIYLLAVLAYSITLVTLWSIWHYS
Method: GR65630 binds to the 5-HT3 receptor. Brain cortices were obtained from male rats and a membrane fraction prepared by standard techniques. 0.04 mg of membrane prep was incubated with 0.2 nM […] for 60 minutes at 22° C. […] Membranes were filtered and washed times and the filters were counted to determine [3H]-GR65630 specifically bound. Kilpatrick G. J., Jones B. J. and Tyers M. B. Identification and distribution of 5-HT3 receptors in rat brain using radioligand binding assay. Nature, 330 : 746-748, 1987.

5-HT4 receptor = biological target: T2, 5-HT4 receptor (Rattus norvegicus, UniProt Q62758); test: biochemical; details: carbachol (3 μM)-contracted rat esophagus TMM; 37° C.; tissues from 5 rats; read-out: 5-HT4 Agonism (Rat TMM) In Vitro Assay: EC50 Values
T2 construct: One 2 cm segment of intrathoracic esophagus proximal to the diaphragm was removed from male rats; from tissue; host or cells: rat intrathoracic oesophagus, inner tunica muscularis mucosae
Method: (§1) 5-HT4 agonist activity was determined in the in vitro rat tunice muscularis mucosae (TMM) assay. (Baxter et el., Naunyn Schmied Arch. Pharmacol, 1991, 343,439). The 5-HT4 agonist or antagonist activity and/or 5-HT3 antagonist activity of the compounds of the invention herein, can be determined by the assays as described herein, without undue experimention.
Agonist activity was determined utilizing relaxation of carbachol-contracted rat tunica muscularis mucosae. One 2 cm segment of intrathoracic esophagus proximal to the diaphragm was removed from male rats, weighing approximately 300 gm, and the outer muscle layers removed. The inner tunica muscularis mucosa was mounted under 0.2-0.3 g of tension in a tissue bath containing oxygenated Tyrode's solution at 37° C. […] Following a 30 min equilibrium period, tissues were isometrically contracted with carbachol (3 μM) to obtain a tonic contraction. A stable plateau was obtained within 20 min when test compound was added cumulatively to relax the muscle strip. EC50 values were obtained for each agonist in tissues from 5 rats.

5-HT3 = test: Bezold-Jarisch Reflex (inhibition of 5-HT-induced bradycardia in anesthetized mice); type: in vivo; details: i.p., 30 min before 5-HT 0.25 mg/kg i.v.; >50 percent reduction in bradycardic response vs vehicle considered significant; pentobarbital anesthetized mice
Method: as §1
The compound to be evaluated was administered i.p. (mg/kg) to a group of 3 mice. […] A greater than 50 percent (>50) reduction in the bradycardic response relative to vehicle-treated control mice was considered significant.
This method has been described by Saxena, P. R. and Lawang, A., Arch. Int. Pharmacodyn., 277:235-252, 1985.
The assay results for the compounds of the present invention and their Minimum Effective Dose (MED) and the reference compounds and their MEDs are recorded in Table I.

T2 sequence (Q62758 whole entry): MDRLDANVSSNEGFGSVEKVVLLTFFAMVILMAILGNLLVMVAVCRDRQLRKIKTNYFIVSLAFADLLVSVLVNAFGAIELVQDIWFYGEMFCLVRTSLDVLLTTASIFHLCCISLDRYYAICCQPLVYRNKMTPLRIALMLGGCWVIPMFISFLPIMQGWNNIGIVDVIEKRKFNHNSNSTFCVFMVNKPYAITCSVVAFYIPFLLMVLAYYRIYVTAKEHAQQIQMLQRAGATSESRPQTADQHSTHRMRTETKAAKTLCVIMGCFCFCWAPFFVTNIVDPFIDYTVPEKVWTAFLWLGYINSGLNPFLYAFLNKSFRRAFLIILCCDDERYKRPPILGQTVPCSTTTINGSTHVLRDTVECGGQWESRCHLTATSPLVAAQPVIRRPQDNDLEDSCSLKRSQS

Structure (SMILES) | Ki (5-HT3 receptor) [nM] | EC50 (5-HT4 receptor) [nM] | further results
CCn1c(=O)n(C(=O)NC2C3CC4CC2CN(C4)C3)c2ccccc21 (centres unmarked) [Example 15, N-(1-azatricyclo[3.3.1.1^3,7]decan-4-yl)-3-ethyl-2,3-dihydro-2-oxo 1H-benzimidazole-1-carboxamide] | 92 | 4580 | 
CC(C)n1c(=O)n(C(=O)NCC2C3CC4CC2N(C4)C3)c2ccccc21 (stereo not drawn) [Example 29, N-[(Hexahydro-2β,6β-methano-1H, 7aα-pyrrolizin-1β-yl)methyl]2,3-dihydro-3-(1-methylethyl)-2-oxo-1H-benzimidazole-1-carboxamide] |  | 1630 | 
CC(C)n1c(=O)n(C(=O)NC[C@@H]2CN3CC[C@H]2C3)c2ccccc21 (relative stereo) [Example 35, N-[(endo-1-azabicyclo[2.2.1]heptan-3-yl)methyl-]-2,3-dihydro-3-(1-methylethyl) -2-oxo-1H-benzimidazole-1-carboxamide] |  | 294 | 
O=c1[nH]c2ccccc2n1CCCN1CCC(n2c(=O)[nH]c3cc(Cl)ccc32)CC1 [domperidone] |  |  | Minimum Effective Dose (MED) (5-HT3): > 10 mg/kg
CCn1c(=O)n(C(=O)NC2C3CC4CC2CN(C4)C3)c2ccc(Cl)cc21 (centres unmarked) [Example 22, N-(1-azatricyclo[3.3.1.1^3,7]decan-4-yl)-5-chloro-3-ethyl-2,3-dihydro 2-oxo-1H-benzimidazole-1-carboxamide] | 360 |  | 
Cc1nc[nH]c1CCC(=O)c1cn(C)c2ccccc12 [GR65630, reference compound] |  |  | Bmax (5-HT3 receptor; [3H]-GR65630, rat brain cortex membranes): 154 fmol/mg protein
CCn1c(=O)n(C(=O)NC2C3CC4CC2CN(C4)C3)c2ccc(Cl)cc21 (centres unmarked) [Example 19, N-(1-azatricyclo[3.3.1.1^3,7]decan-4-yl)-5-chloro-3-ethyl-2,3-dihydro 2-oxo-1H-benzimidazole-1-carboxamide] | 1200 |  | 
CC(C)n1c(=O)n(C(=O)NCC23CC4CN(CC4C2)C3)c2cc(Cl)ccc21 [Example 34, N-[(Hexahydro-2,5β-methano-1H-3aα,6aα-cyclopenta[c]-pyrrol-5-yl)methyl]-6-chloro-2,3-dihydro-3-(1-methylethyl)-2-oxo-1-benzimidazole-1-carboxamide] |  | 248 | 
CC(C)n1c(=O)n(C(=O)NCCC23CCCN2CCC3)c2cc(Cl)ccc21 [Example 12A, 6-Chloro-N-[2-(hexahydro-7aH-pyrrolizin-7a-yl)ethyl]2,3-dihydro-3-(1-methylethyl)-2-oxo-1H-benzimidazole 1-carboxamide] |  | 1360 | 
CC(C)n1c(=O)n(C(=O)NCC23CC4CN(CC4C2)C3)c2ccccc21 [Example 33, N-[(Hexahydro-2,5β-methano-1H-3aα,6aα-cyclopenta-[c]pyrrol-5-yl)methyl]-2,3-dihydro 3-(1-methylethyl)-2-oxo-1H-benzimidazole-1-carboxamide] |  | 337 | 
CCn1c(=O)n(C(=O)NC2C3CC4CC2CN(C4)C3)c2cc(Cl)ccc21 (centres unmarked) [Example 18, N-(1-azatricyclo[3.3.1.1^3,7]decan-4-yl)-6-chloro-3-ethyl-2,3-dihydro 2-oxo-1H-benzimidazole-1-carboxamide] | 1200 |  | 
CC(C)n1c(=O)n(C(=O)NCC23CCCN2CCC3)c2ccccc21 [Example 14, N-[(hexahydro-7aH-pyrrolizin-7a-yl)methyl]-2,3-dihydro-3-(1-methylethyl) 2-oxo-1H-benzimidazole-1-carboxamide] | 36 | 3830 | 
CCn1c(=O)n(C(=O)NC2C3CC4CC2CN(C4)C3)c2cc(Cl)ccc21 (centres unmarked) [Example 21, N-(1-azatricyclo[3.3.1.1^3,7]decan-4-yl)-6-chloro-3-ethyl-2,3-dihydro 2-oxo-1H-benzimidazole-1-carboxamide] | 55 | 2140 | 
CC(C)n1c(=O)n(C(=O)NCCC23CCCN2CCC3)c2cc(Cl)c(N)cc21 [Example 12B, 6-Chloro-5-amino-N-[2-(hexahydro-7aH-pyrrolizin-7a-yl)ethyl]-2,3-dihydro-3-(1-methylethyl)-2-oxo-1H-benzimidazole-1-carboxamide] |  | 374 | 
CC(C)n1c(=O)n(C(=O)NC[C@H]2CCN3CCC[C@H]23)c2ccccc21 (relative stereo) [Example 23, cis-N-[(hexahydro-1H-pyrrolizin-1-yl)methyl]-2,3-dihydro-3-(1-methylethyl) 2-oxo-1H-benzimidazole-1-carboxamide] |  |  | Minimum Effective Dose (MED) (5-HT3): 1 mg/kg
CC[C@@H](CO)NC(=O)[C@@H]1C=C2c3cccc4c3c(cn4C)C[C@H]2N(C)C1 [methylsergide] |  |  | Minimum Effective Dose (MED) (5-HT3): > 10 mg/kg
CCN(CC)CCNC(=O)c1cc(Cl)c(N)cc1OC [metoclopramide] |  |  | Minimum Effective Dose (MED) (5-HT3): 5 mg/kg
CC(C)n1c(=O)n(C(=O)NCCC23CCCN2CCC3)c2ccc(Cl)cc21 [Example 12, 5-chloro-N-[2-(hexahydro-7aH-pyrrolizin-7a-yl)ethyl]2,3-dihydro-3-(1-methylethyl)-2-oxo-1H-benzimidazole 1-carboxamide] | 2800 | 9470 | 
CN1[C@@H]2C[C@@H](OC(=O)[C@H](CO)c3ccccc3)C[C@H]1[C@@H]1O[C@@H]12 [scopolamine] |  |  | Minimum Effective Dose (MED) (5-HT3): 2.5 mg/kg
CC(C)n1c(=O)n(C(=O)NCC2C3CC4CC2CN4C3)c2ccccc21 (centres unmarked) [Example 32, N-(Hexahydro-2,6-methano-1H-pyrrolizin-8-ylmethyl]-2,3-dihydro-3(1-methylethyl)-2-oxo-1H-benzimidazole-1-carboxamide] |  | 1320 | 
CC(C)n1c(=O)n(C(=O)NC[C@H]2CN3CC[C@H]2C3)c2ccccc21 (relative stereo) [Example 36, N-[(exo-1-azabicyclo[2.2.1]heptan-3-yl)methyl-]-2,3-dihydro-3-(1-methylethyl) 2-oxo-1H-benzimidazole-1-carboxamide] |  | 302 | 
CCn1c(=O)n(C(=O)NC2C3CC4CC2CN(C4)C3)c2ccccc21 (centres unmarked) [Example 20, N-(1-azatricyclo[3.3.1.1^3,7]decan-4-yl)-3-ethyl-2,3-dihydro-2-oxo-1H-benzimidazole 1-carboxamide] | 19 | 10000 | 
CC(C)n1c(=O)n(C(=O)NC2C3CC4CC2CN(C4)C3)c2cc(Cl)ccc21 (centres unmarked) [Example 16, N-(1-azatricyclo[3.3.1.1^3,7]decan-4-yl)-6-chloro-2,3-dihydro-3-(1-methylethyl) 2-oxo-1H-benzimidazole-1-carboxamide] | 1200 | 10000 | 
CC(C)n1c(=O)n(C(=O)NCC2C3CC4CC2CN(C4)C3)c2ccccc21 (centres unmarked) [Example 19B, N-(1-azatricyclo[3.3.1.1.^3,7]decan-4-ylmethyl)-2,3-dihydro-3-(1-methylethyl) 2-oxo-1H-benzimidazole-1-carboxamide] |  | 926 | 
CC(C)n1c(=O)n(C(=O)NCC2C3CC4CC2N(C4)C3)c2ccccc21 (stereo not drawn) [Example 30, N-[(Hexahydro-2β,6β-methano-1H, 7aα-pyrrolizin-1α-yl)methyl]2,3-dihydro-3-(1-methylethyl)-2-oxo-1H-benzimidazole-1-carboxamide] |  | 219 | 
CC(C)n1c(=O)n(C(=O)NCC2C3CC4CC2CN(C4)C3)c2cc(Cl)ccc21 (centres unmarked) [Example 22C, N-(1-azatricyclo[3.3.1.1^3,7]decan-4-ylmethyl)-6-chloro-2,3-dihydro-3-(1-methylethyl) 2-oxo-1H-benzimidazole-1-carboxamide] |  | 722 | 
CC(C)n1c(=O)n(C(=O)N[C@H]2C[C@@H]3CN(C)C[C@@H]3C2)c2ccccc21 [Example 14A] |  | 874 | 
CC(C)n1c(=O)n(C(=O)N[C@@H]2[C@@H]3C[C@H]4CN(C3)C[C@H]42)c2ccccc21 (relative stereo) [Example 24, N-(hexahydro-1H-2,5β-methano-3aα,6aα-cyclopenta [c]pyrrol-4α-yl)-2,3-dihydro-3-(1-methylethyl)-2-oxo 1H-benzimidazole-1-carboxamide] | 2 | 1510 | 
